From US20230413819A1, “METHODS FOR CONTROLLING FLEA AND TICK INFESTATIONS IN A MAMMAL” (In the Bowl Animal Health, Inc., priority 2021, published 2023)
Several values for one entry are separate records, joined by “and”; a condition that tells them apart may be missing. Identical values can stand only once.

Tests used:
[1] = Plasma concentration of mivorilaner, 0.75 mg/kg daily oral (Examples 4 and 10); type: in vivo, dogs
Method: Each dog in the treatment group is to receive by mouth a liquid formulation of isoxazoline. The dosage of 0.75 mg/kg is to be administered to the dogs on each of days 0-29.
Dogs in the control group are not to receive isoxazoline or any other tick control treatment. Each dog in the treatment group is to be offered its daily ration (dry food) and the individual doses of liquid formulation are to be administered after the individual dog has eaten at least 25% of its total daily ration. After receiving the dose of isoxazoline, the dogs are to be allowed to continue eating. This mimics incorporating the isoxazoline in feed. Each dog in the treatment group and the control group is to be experimentally infested with 50 adult ticks on test days 5, 12, 19, 28 and 35. Comb counts for live and moribund attached ticks are to be conducted on days 7, 14, 21, 30 and 37.
Dogs in the control group are not to receive isoxazoline or any other flea control treatment. Each dog in the treatment group is to be offered its daily ration (dry food) and the individual doses of liquid formulation are to be administered after the individual dog has eaten at least 25% of its total daily ration. After receiving the dose of isoxazoline, the dogs are to be allowed to continue eating. This mimics incorporating the isoxazoline in feed. Each dog in the treatment group and the control group is to be experimentally infested with 100 unfed adult fleas on test days 2, 5, 12, 20 and 35. Comb counts for live adult fleas are to be conducted on days 4, 7, 14, 21 and 37.

[2] = Average plasma concentration of mivorilaner, various daily oral doses (Examples 5 and 11); type: in vivo, dogs; settings: dog, fed; for concentration at 0 h: 0 h after initial dose; for concentration at 72 h: 72 h after initial dose; for concentration at 120 h: 120 h after initial dose; for concentration at 168 h: 168 h after initial dose; for concentration at 336 h: 336 h after initial dose; for concentration at 504 h: 504 h after initial dose; for concentration at 720 h: 720 h after initial dose; for concentration at 888 h: 888 h after initial dose; for concentration at 1056 h: 1056 h after initial dose; for concentration at 1224 h: 1224 h after initial dose; for concentration at 1440 h: 1440 h after initial dose

For `O=C(CNC(=O)c1sc(C2=NO[C@@](c3cc(Cl)c(F)c(Cl)c3)(C(F)(F)F)C2)c2c1CCC2)NCC(F)F` [mivorilaner, 3-[(5S)-5-(3,5-dichloro-4-fluorophenyl)-5-(trifluoromethyl)-4,5-dihydroisoxazol-3-yl]-N-[2-[(2,2-difluoroethyl)amino]-2-oxoethyl]-5,6-dihydro-4H-cyclopenta[c]thiophene-1-carboxamide], the “Mivorilaner Concentration, individual canines” value (“Mivorilaner Concentration” below) ([1]; 0.75 mg/kg/day oral days 0-29, Day 3, 0.75 mg/kg/day) was 579 ng/mL and 660 ng/mL and 800 ng/mL and 798 ng/mL and 556 ng/mL and 648 ng/mL, the “Mivorilaner Concentration” value ([1]; 0.75 mg/kg/day oral days 0-29, Day 7, 0.75 mg/kg/day) was 994 ng/mL and 1470 ng/mL and 1620 ng/mL and 1660 ng/mL and 1330 ng/mL and the “Mivorilaner Concentration” value ([1]; 0.75 mg/kg/day oral days 0-29, Day 14, 0.75 mg/kg/day) was 1560 ng/mL and 2120 ng/mL and 2370 ng/mL and 2060 ng/mL and 1990 ng/mL and 2530 ng/mL. For the same compound, the “Mivorilaner Concentration” value ([1]; 0.75 mg/kg/day oral days 0-29, Day 21, 0.75 mg/kg/day) was 2450 ng/mL and 2720 ng/mL and 2950 ng/mL and 2660 ng/mL and 2750 ng/mL and 2820 ng/mL, the “Mivorilaner Concentration” value ([1]; 0.75 mg/kg/day oral days 0-29, Day 30, 0.75 mg/kg/day) was 2320 ng/mL and 2600 ng/mL and 2790 ng/mL and 2570 ng/mL and 2890 ng/mL and the “Mivorilaner Concentration” value ([1]; 0.75 mg/kg/day oral days 0-29, Day 37, 0.75 mg/kg/day) was 1880 ng/mL and 2010 ng/mL and 1980 ng/mL and 1750 ng/mL and 2070 ng/mL and 2410 ng/mL. The “Mivorilaner Concentration” value ([1]; 0.75 mg/kg/day oral days 0-29, Day −1 (before first dose)) was “BLQ”, the concentration at 30 day ([1]; dog, po, 0.75 mg/kg/day, 0.75 mg/kg/day oral days 0-29, Day 30, read-out: Mivorilaner Concentration, individual canines) was 2890 ng/mL and the concentration at 0 h ([2]; Group 2, 0.125 mg/kg/day oral) was 0 ng/mL. For the same compound, the concentration at 72 h ([2]; Group 2, 0.125 mg/kg/day oral) was 136 ng/mL, the concentration at 120 h ([2]; Group 2, 0.125 mg/kg/day oral) was 213 ng/mL and the concentration at 168 h ([2]; Group 2, 0.125 mg/kg/day oral) was 244 ng/mL. It also gave a concentration at 336 h ([2]; Group 2, 0.125 mg/kg/day oral) of 384 ng/mL, a concentration at 504 h ([2]; Group 2, 0.125 mg/kg/day oral) of 404 ng/mL and a concentration at 720 h ([2]; Group 2, 0.125 mg/kg/day oral) of 420 ng/mL. The concentration at 888 h ([2]; Group 2, 0.125 mg/kg/day oral) was 448 ng/mL, the concentration at 1056 h ([2]; Group 2, 0.125 mg/kg/day oral) was 428 ng/mL and the concentration at 1224 h ([2]; Group 2, 0.125 mg/kg/day oral) was 486 ng/mL. For the same compound, the concentration at 1440 h ([2]; Group 2, 0.125 mg/kg/day oral) was 898 ng/mL, the concentration at 0 h ([2]; Group 3, 0.25 mg/kg/day oral) was 0 ng/mL and the concentration at 72 h ([2]; Group 3, 0.25 mg/kg/day oral) was 283 ng/mL. For the same compound, the concentration at 120 h ([2]; Group 3, 0.25 mg/kg/day oral) was 450 ng/mL, the concentration at 168 h ([2]; Group 3, 0.25 mg/kg/day oral) was 579 ng/mL and the concentration at 336 h ([2]; Group 3, 0.25 mg/kg/day oral) was 883 ng/mL. It also gave a concentration at 504 h ([2]; Group 3, 0.25 mg/kg/day oral) of 878 ng/mL, a concentration at 720 h ([2]; Group 3, 0.25 mg/kg/day oral) of 1020 ng/mL and a concentration at 888 h ([2]; Group 3, 0.25 mg/kg/day oral) of 1000 ng/mL. It also gave a concentration at 1056 h ([2]; Group 3, 0.25 mg/kg/day oral) of 945 ng/mL, a concentration at 1224 h ([2]; Group 3, 0.25 mg/kg/day oral) of 1040 ng/mL and a concentration at 1440 h ([2]; Group 3, 0.25 mg/kg/day oral) of 999 ng/mL. For the same compound, the concentration at 0 h ([2]; Group 4, 0.5 mg/kg/day oral) was 0 ng/mL, the concentration at 72 h ([2]; Group 4, 0.5 mg/kg/day oral) was 474 ng/mL and the concentration at 120 h ([2]; Group 4, 0.5 mg/kg/day oral) was 763 ng/mL. The concentration at 168 h ([2]; Group 4, 0.5 mg/kg/day oral) was 888 ng/mL, the concentration at 336 h ([2]; Group 4, 0.5 mg/kg/day oral) was 1460 ng/mL and the concentration at 504 h ([2]; Group 4, 0.5 mg/kg/day oral) was 1630 ng/mL. The concentration at 720 h ([2]; Group 4, 0.5 mg/kg/day oral) was 1870 ng/mL, the concentration at 888 h ([2]; Group 4, 0.5 mg/kg/day oral) was 1990 ng/mL and the concentration at 1056 h ([2]; Group 4, 0.5 mg/kg/day oral) was 2010 ng/mL. For the same compound, the concentration at 1224 h ([2]; Group 4, 0.5 mg/kg/day oral) was 2320 ng/mL, the concentration at 1440 h ([2]; Group 4, 0.5 mg/kg/day oral) was 2300 ng/mL and the concentration at 0 h ([2]; Group 5, 1.0 mg/kg/day oral) was 0 ng/mL. For the same compound, the concentration at 72 h ([2]; Group 5, 1.0 mg/kg/day oral) was 951 ng/mL, the concentration at 120 h ([2]; Group 5, 1.0 mg/kg/day oral) was 1510 ng/mL and the concentration at 168 h ([2]; Group 5, 1.0 mg/kg/day oral) was 1790 ng/mL. For the same compound, the concentration at 336 h ([2]; Group 5, 1.0 mg/kg/day oral) was 2690 ng/mL and the concentration at 504 h ([2]; Group 5, 1.0 mg/kg/day oral) was 3020 ng/mL.
